System: mdx mice
Experiment: Myodegeneration in spontaneous muscular dystrophy model (mdx) mice
Type: in vivo, mouse
Settings: in drinking water, about 30 mg/kg
Procedure: mdx Mice (C57BL/10ScSn-Dmd^mdx) were purchased in male and female pairs from Jackson Laboratories, and bred in-house for use. After weaned at 3 weeks old, male mdx mice were selected, which were subjected to the test from 4 weeks old. Compound 133 was dissolved in MEYLON 84 (registered trademark, 8.4% sodium bicarbonate injection, Otsuka) to prepare 12 mL of a 3 mg/mL solution thereof. This was added to and mixed with 188 mL of sterile tap water (final concentration of the compound: 180 μg/mL), and the mixture was administered by unrestricted intake (actual dose of the compound was about 30 mg/kg). […]
As evaluation of the diaphragm muscle, the degenerated and/or necrotic muscle area ratio of the diaphragm was determined. […] The thus prepared specimen was digitally shot at 20-fold magnification using a digital microscope (VHX-1000, KEYENCE, Osaka) and the images were recorded in TIFF format. Using the nature that degenerated and/or necrotic muscle absorbs EB and turns blue (J. Anat., 2002, 200, 69-79), the area of the diaphragm piece and the area of blue region showing the distribution of degenerated and/or necrotic muscle were determined with an image analyzer (LUZEX AP, Nireco, Tokyo). […]
For evaluation of the posterior crural muscle, the degenerated and/or necrotic muscle area ratio of the gastrocnemius muscle was determined. […]

`O=C(O)c1cc(-c2ccco2)nc2ccc3nn(-c4ccccc4)nc3c12` [Compound 133, 7-(furan-2-yl)-2-phenyl-2H-[1,2,3]triazolo[4,5-f]quinoline-9-carboxylic acid] was tested. Which “inhibition of degeneration and/or necrosis of the diaphragm” value did it give?
The value was 40%.

And the “inhibition of degeneration and/or necrosis of the gastrocnemius muscle” value?
Its value is 49%.

From patent publication US20120196854A1, “PHARMACEUTICAL COMPOSITION COMPRISING AROMATIC HETEROCYCLIC COMPOUND” (Kyowa Hakko Kirin Co., Ltd., priority 2009, published 2012)
